SMILES strings stand for the structures.

This data set can be described thus: Intrinsic clearance in human liver microsomes. To be noted: read-out: CLH. Type of data set: ADME, Microsome. (Liver microsomes are vesicles of endoplasmic reticulum, rich in cytochrome P450 enzymes.)

As for `OC(CC1c2ccccc2-c2cncn21)C1CCC(F)(F)CC1` (stereo unspecified), the predicted hepatic clearance is 14.6 mL/min/kg.

The record behind these values is ChEMBL document CHEMBL4364294 (J Med Chem, 2019).
